Laboratory results: patent US9492413B2 (priority 2008, dated 2016)
Like-named read-outs stand apart in the source and are kept apart here.

Assays:
[1] = system: human H5N1 isolate A/Thailand/KAN-1/2004; format: cell-based, influenza A virus
JNK, p38 and ERK [2] = details: cited from earlier work
[3] = system: A/FPV/Bratislava/79 (H7N7)
JNK, p38 and ERK [4] = system: JNK, p38 and ERK
[5] = system: poly-ADP-ribose polymerase (PARP)
[6] = system: viral proteins M1, NP, NS1 and PB1
[7] = system: viral ribonucleoprotein complexes (RNP)
IP10 = details: mouse, in vivo
IFN-gamma = details: mouse, in vivo
[8] = human, in vivo

| Compound | inhibition of virus titers [1] | virus-induced activation of JNK, p38 and ERK (JNK, p38 and ERK [2]) | inhibition of virus multiplication (virus titers versus time) [3] | reduction of replication (H7N1 virus (FPV)) | reduction of replication (H5N1 virus (MB1)) | virus-induced activation of JNK, p38 and ERK (JNK, p38 and ERK [4]) | band of the cleaved PARP (caspase activation) [5] | accumulation of the viral proteins M1, NP, NS1 and PB1 [6] | retention of viral RNP complexes [7] | reduction of IP10 m-RNA expression (IP10; ip) | reduction of IP10 m-RNA expression (IP10; iv) | reduction of IFN-gamma m-RNA expression (IFN-gamma; ip) | reduction of IFN-gamma m-RNA expression (IFN-gamma; iv) | improvement of the symptoms, all other patients [8] | improvement of the symptoms, first day after the administration [8] |
| --- | --- | --- | --- | --- | --- | --- | --- | --- | --- | --- | --- | --- | --- | --- | --- |
| CC(=O)Oc1ccccc1C(=O)O [acetylsalicylic acid, reference compound] | efficient inhibition of the virus titers of the H5N1 strain by several decimal powers | is not inhibited | – | – | – | – | – | – | – | – | – | – | – | – | – |
| lysine-glycine-acetylsalicylate [LG-acetylsalicylate] | efficient inhibition of the virus titers of the H5N1 strain by several decimal powers | – | equally efficiently inhibits the virus multiplication | more than 99% | more than 99% | is not blocked | efficiently reduced | is not inhibited | efficient retention of viral RNP complexes | 26% | 62% | 50% | 68% | improvement of the symptoms occurred on the 3rd day | significant improvement of the symptoms |
